Laboratory results taken from PMC7619385 (ACS infectious diseases, 2025).
Where two headings read alike, the source gives them in different places.

Assays:
LmxCLK1 = molecular target: T1, LmxCLK1 (Leishmania mexicana, UniProt E9AMP2); assay: biochemical; format: binding
T1 sequence (E9AMP2 1-422): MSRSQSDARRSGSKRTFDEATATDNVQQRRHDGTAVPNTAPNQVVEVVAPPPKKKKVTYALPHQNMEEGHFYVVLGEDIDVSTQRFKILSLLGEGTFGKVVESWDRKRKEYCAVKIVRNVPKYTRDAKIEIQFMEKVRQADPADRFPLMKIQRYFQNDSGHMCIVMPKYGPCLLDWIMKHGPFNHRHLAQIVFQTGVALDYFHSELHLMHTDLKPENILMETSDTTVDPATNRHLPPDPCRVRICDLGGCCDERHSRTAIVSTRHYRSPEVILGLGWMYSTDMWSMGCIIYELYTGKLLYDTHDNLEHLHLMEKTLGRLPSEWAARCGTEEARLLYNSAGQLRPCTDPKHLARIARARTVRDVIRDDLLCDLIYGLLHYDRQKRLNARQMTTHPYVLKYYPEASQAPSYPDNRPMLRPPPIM

NLuc::LmxCLK1 = NLuc::LmxCLK1 (Leishmania mexicana, UniProt E9AMP2); assay: cell-based; format: cell-based; conditions: for Target occupancy Run 1 / Target occupancy Run 2 / Target occupancy Average: 10 µM compound, tracer SV366, promastigotes; for Target occupancy Average: mean of two experiments
How it was run: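 NanoBRET tracer displacement in live cells expressing NLuc-tagged CLK1, test compounds at 10 µM fixed, 1% DMSO final. Acceptor/donor emission (610/460 nm) ratio gives mBRET, converted to blank-corrected probe occupancy (%); probe KD from single-site saturation binding fits.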

[1] = DSF, 10 µM compound, 2 µM LmxCLK1, Run 1, read-out: ΔTm Run 1
[2] = DSF, 10 µM compound, 2 µM LmxCLK1, Run 2, read-out: ΔTm Run 2
[3] = DSF, 10 µM compound, 2 µM LmxCLK1, mean of two runs, read-out: ΔTm Average
[4] = read-out: Target occupancy Average
[5] = read-out: Target occupancy Run 1
[6] = read-out: Target occupancy Run 2
[7] = DSF, 10 µM compound, 2 µM LmxCLK1, Run 1
[8] = DSF, 10 µM compound, 2 µM LmxCLK1, Run 2
[9] = DSF, 10 µM compound, 2 µM LmxCLK1, mean of two runs

CCS(=O)(=O)c1cccc(-c2cc(C(=O)NC3CCN(C)CC3)c(C)c3[nH]c4ncc(C)cc4c23)c1 [TAK-901]
ΔTm at 10 µM (LmxCLK1; [1]): 1.5 °C | ΔTm at 10 µM (LmxCLK1; [2]): 1.1 °C | ΔTm at 10 µM (LmxCLK1; [3]): 1.3 °C | receptor occupancy at 10 µM (NLuc::LmxCLK1; [4]): -5.9% | receptor occupancy at 10 µM (NLuc::LmxCLK1; [5]): -2.7% | receptor occupancy at 10 µM (NLuc::LmxCLK1; [6]): -9.1%

CCN1/C(=C/C(C)=O)Sc2ccc(OC)cc21 [TG003]
ΔTm Run 1 (LmxCLK1; [7]): 1.4 °C | ΔTm Run 2 (LmxCLK1; [8]): 1.2 °C | ΔTm Average (LmxCLK1; [9]): 1.3 °C | Target occupancy Run 1 (NLuc::LmxCLK1): 10.1% | Target occupancy Run 2 (NLuc::LmxCLK1): -15.2% | Target occupancy Average (NLuc::LmxCLK1): -2.5%

Cc1ccccc1CN1C(=O)C2=C(CCN(Cc3ccccc3)C2)N2CCN=C12 [TIC10]
ΔTm Average (LmxCLK1): 0.2 °C | ΔTm Run 1 (LmxCLK1): 0.2 °C | ΔTm Run 2 (LmxCLK1): 0.2 °C | Target occupancy Run 1 (NLuc::LmxCLK1): 4.1% | Target occupancy Run 2 (NLuc::LmxCLK1): -6.1% | Target occupancy Average (NLuc::LmxCLK1): -1.0%

NC(=O)Nc1sc(-c2ccc(F)cc2)cc1C(N)=O [TPCA-1]
ΔTm Run 1 (LmxCLK1; [7]): 0.1 °C | ΔTm Run 2 (LmxCLK1; [8]): 0.2 °C | ΔTm Average (LmxCLK1; [9]): 0.2 °C | Target occupancy Run 1 (NLuc::LmxCLK1): 1.2% | Target occupancy Run 2 (NLuc::LmxCLK1): -7.6% | Target occupancy Average (NLuc::LmxCLK1): -3.2%

O=C(NCc1ccccc1)c1csc(Nc2ccncn2)n1 [Thiazovivin]
ΔTm Run 1 (LmxCLK1; [7]): 0.3 °C | ΔTm Run 2 (LmxCLK1; [8]): 0.0 °C | ΔTm Average (LmxCLK1; [9]): 0.2 °C | Target occupancy Run 1 (NLuc::LmxCLK1): -3.6% | Target occupancy Run 2 (NLuc::LmxCLK1): 1.5% | Target occupancy Average (NLuc::LmxCLK1): -1.1%

CS(=O)(=O)c1ccc(-c2cnc(N)c(C(=O)Nc3ccccc3)n2)cc1 [VE-821]
ΔTm at 10 µM (LmxCLK1; [1]): -0.2 °C | ΔTm at 10 µM (LmxCLK1; [2]): -0.5 °C | ΔTm at 10 µM (LmxCLK1; [3]): -0.4 °C | receptor occupancy at 10 µM (NLuc::LmxCLK1; [4]): -2.9% | receptor occupancy at 10 µM (NLuc::LmxCLK1; [5]): -11.1% | receptor occupancy at 10 µM (NLuc::LmxCLK1; [6]): 5.3%

C[C@@H]1COC(Nc2ccc3ncnc(Nc4ccc(OCc5nccs5)c(Cl)c4)c3c2)=N1 [Varlitinib]
ΔTm at 10 µM (LmxCLK1; [1]): 0.2 °C | ΔTm at 10 µM (LmxCLK1; [2]): 0 °C | ΔTm at 10 µM (LmxCLK1; [3]): 0.1 °C | receptor occupancy at 10 µM (NLuc::LmxCLK1; [4]): -0.8% | receptor occupancy at 10 µM (NLuc::LmxCLK1; [5]): 2.7% | receptor occupancy at 10 µM (NLuc::LmxCLK1; [6]): -4.3%

c1cncc(CN2CCC(n3ncc4c(N5CCOCC5)nc(-c5ccc6[nH]ccc6c5)nc43)CC2)c1 [WAY-600]
ΔTm Run 1 (LmxCLK1; [7]): 0.0 °C | ΔTm Run 2 (LmxCLK1; [8]): -0.4 °C | ΔTm Average (LmxCLK1; [9]): -0.2 °C | Target occupancy Run 1 (NLuc::LmxCLK1): 4.0% | Target occupancy Run 2 (NLuc::LmxCLK1): -10.8% | Target occupancy Average (NLuc::LmxCLK1): -3.4%

COc1cc2ncnc(Nc3ccc(O)c(Br)c3)c2cc1OC [WHI-P154]
ΔTm Run 1 (LmxCLK1; [7]): 0.1 °C | ΔTm Run 2 (LmxCLK1; [8]): 0.1 °C | ΔTm Average (LmxCLK1; [9]): 0.1 °C | Target occupancy Run 1 (NLuc::LmxCLK1): 7.3% | Target occupancy Run 2 (NLuc::LmxCLK1): -12.9% | Target occupancy Average (NLuc::LmxCLK1): -2.8%

C[C@H](NC(=O)/C(C#N)=C/c1cccc(Br)n1)c1ccccc1 [WP1066]
ΔTm at 10 µM (LmxCLK1; [1]): 0.1 °C | ΔTm at 10 µM (LmxCLK1; [2]): 0 °C | ΔTm at 10 µM (LmxCLK1; [3]): 0 °C | receptor occupancy at 10 µM (NLuc::LmxCLK1; [4]): -7.5% | receptor occupancy at 10 µM (NLuc::LmxCLK1; [5]): 3.4% | receptor occupancy at 10 µM (NLuc::LmxCLK1; [6]): -18.3%

COC[C@H]1OC(=O)c2coc3c2[C@@]1(C)C1=C(C3=O)[C@@H]2CCC(=O)[C@@]2(C)C[C@H]1OC(C)=O [Wortmannin]
ΔTm at 10 µM (LmxCLK1; [1]): 0 °C | ΔTm at 10 µM (LmxCLK1; [2]): -0.3 °C | ΔTm at 10 µM (LmxCLK1; [3]): -0.2 °C | receptor occupancy at 10 µM (NLuc::LmxCLK1; [4]): -3.6% | receptor occupancy at 10 µM (NLuc::LmxCLK1; [5]): -2.4% | receptor occupancy at 10 µM (NLuc::LmxCLK1; [6]): -4.8%

COc1ccc(Cl)c(Nc2nc3ccccc3nc2NS(=O)(=O)c2cccc(NC(=O)C(C)(C)N)c2)c1 [XL147]
ΔTm at 10 µM (LmxCLK1; [1]): -0.1 °C | ΔTm at 10 µM (LmxCLK1; [2]): 0.8 °C | ΔTm at 10 µM (LmxCLK1; [3]): 0.4 °C | receptor occupancy at 10 µM (NLuc::LmxCLK1; [4]): -5% | receptor occupancy at 10 µM (NLuc::LmxCLK1; [5]): -8.3% | receptor occupancy at 10 µM (NLuc::LmxCLK1; [6]): -1.7%

CC(C)N(CCC(=O)c1ccc2ccccc2c1)Cc1ccccc1.Cl [ZM 39923 HCl]
ΔTm Run 1 (LmxCLK1; [7]): 0.0 °C | ΔTm Run 2 (LmxCLK1; [8]): -0.3 °C | ΔTm Average (LmxCLK1; [9]): -0.2 °C | Target occupancy Run 1 (NLuc::LmxCLK1): 0.2% | Target occupancy Run 2 (NLuc::LmxCLK1): -18.8% | Target occupancy Average (NLuc::LmxCLK1): -9.3%

Cc1ccc(NC(=O)c2cccc(N(C)C)c2)cc1NC(=O)c1ccc(O)cc1 [ZM 336372]
ΔTm Run 1 (LmxCLK1; [7]): -0.1 °C | ΔTm Run 2 (LmxCLK1; [8]): -0.5 °C | ΔTm Average (LmxCLK1; [9]): -0.3 °C | Target occupancy Run 1 (NLuc::LmxCLK1): -4.5% | Target occupancy Run 2 (NLuc::LmxCLK1): -6.5% | Target occupancy Average (NLuc::LmxCLK1): -5.5%

AZD4547
ΔTm Run 1 (LmxCLK1; [7]): -0.1 °C | ΔTm Run 2 (LmxCLK1; [8]): -0.3 °C | ΔTm Average (LmxCLK1; [9]): -0.2 °C | Target occupancy Run 1 (NLuc::LmxCLK1): -24.6% | Target occupancy Run 2 (NLuc::LmxCLK1): 21.5% | Target occupancy Average (NLuc::LmxCLK1): -1.5%

UNC-AA-1-0013 (AAK1)
ΔTm Average (LmxCLK1): -0.2 | ΔTm Run 1 (LmxCLK1): -0.2 | ΔTm Run 2 (LmxCLK1): -0.3 | Target occupancy Run 1 (NLuc::LmxCLK1): 3.7% | Target occupancy Run 2 (NLuc::LmxCLK1): -11.6% | Target occupancy Average (NLuc::LmxCLK1): -4.0%
